# In patent US11771692B2, “N-hydroxyethyl didehydroazapodophyllotoxins as GBP1 inhibitors and methods of overcoming treatment resistance in cancer” (The Board of Trustees of the Leland Stanford Junior …, priority 2018, dated 2023):
# Key:
# [1] = tested on: ID-8 tumor xenograft; assay: Ovarian ID-8 tumor xenograft in C57BL6 mice; format: in vivo; details: ID-8, 20 mg/kg IP daily
# Excerpt: An immunocompetent syngeneic mouse model was used to evaluate in vivo antitumor effect of SU093 and SU056 (also referred to herein as Compound (I)) for ovarian cancer. C57BL6 female mice (n=5/group) were subcutaneously injected in the right flank with 5×10^6 ID-8 cells mixed with matrigel. From the day following xenograft implantation, mice were monitored regularly for tumor growth and once the tumors reached approximately 100 mm^3, the mice were randomly divided into three groups and respective treatments were given.
# Group I (vehicle control): 100 μl of 10% PEG300 (w/v) in saline;
# Group II: mice treated with SU093 (20 mg/kg); and
# Group III: mice treated with SU056 (20 mg/kg).
# Doses were administered intraperitoneally (IP) for 7 days/week for 42 days and the mice were sacrificed on day 43. Tumor sizes were measured twice weekly using digital caliper and tumor volume was calculated by the formula: 0.5236 L1 (L2)^2, where L1 is long diameter, and L2 is short diameter.
# [2] = tested on: GBP1; assay: cell-based reporter assay, OVCAR-8 stably transfected with GBP-1-luciferase; details: OVCAR-8 GBP-1-luciferase
# Excerpt: Exemplary compounds (1)-(17) and previously identified compound SU093 (Andreoli, M., Persico, M.; Kumar, A.; Orteca, N.; Kumar, V.; Pepe, A.; Mahalingam, S.; Alegria, A. E.; Petrella, L.; Sevciunaite, L.; Camperchioli, A.; Mariani, M.; Di Dato, A.; Novellino, E.; Scambia, G., Malhotra, S. V.; Ferlini, C.; Fattorusso, C., Identification of the First Inhibitor of the GBP1:PIM1 Interaction. Implications for the Development of a New Class of Anticancer Agents against Paclitaxel Resistant Cancer Cells. Journal of Medicinal Chemistry 2014, 57 (19), 7916-7932) were tested for GBP1 inhibition using a cell-based reporter assay in ovarian cancer cell line OVCAR-8 stably transfected with GBP-1-luciferase. Tables 1 and 2 below outlines the percentage of GBP1 expression in OVCAR-8 cells for each of the 17 compounds tested.
# [3] = tested on: SCC-90 tumor xenograft; assay: Head and neck SCC-90 tumor xenograft in nude mice; format: in vivo; details: SCC-90, nude mice
# Procedure: An immunodeficient nude mice model was also used to study the in vivo potential of SU093 and SU056 for head and neck cancer. Nude mice (n=3/group) were subcutaneously injected in the right flank with 5×10^6 SCC-90 cells mixed with matrigel and observed regularly until the tumor size reached about 200 mm^3. The treatment regime with drugs including dose, formulation and route of delivery was similar to ovarian cancer study discussed above. Doses of SU093 and SU056 were administered daily until 35 days and mice were sacrificed thereafter. […] At the end of 35 days, calculated tumor volume/mouse was 860.33±21.78 mm^3, 694.67±14.64 mm^3, and 435.00±10.81 mm^3 for control, SU093 and SU056 treatment groups, respectively. This equates to a 20% and 50% reduction in tumor volume for SU093 and SU056 treatment groups, respectively. A decrease in tumor weight of about 21% (P value not significant) and 54% (P<0.002) was also observed for the SU093 and SU56 treatment groups, respectively.
smiles,measurement,setting,value
O=C1OCC2=C1C(c1cccc(F)c1)c1cc3c(cc1N2CCO)OCO3 (centres unmarked) [SU056],reduction in tumor volume,"[1]; 42 days, vs control",49.55%
same,tumor weight decreased,"[1]; 42 days, vs control",53.44%
same,tumor volume/mouse,[1]; end of 6 weeks,257.39±21.6 mm^3
same,% GBP1 expression OVCAR-8 @5 nM,[2]; 5 nM,54.16%
same,% GBP1 expression OVCAR-8 @10 nM,[2]; 10 nM,43.36%
same,tumor volume/mouse,"[3]; 20 mg/kg IP daily, end of 35 days",435.00±10.81 mm^3
same,decrease in tumor weight,"[3]; 35 days, vs control",~54%
same,reduction in tumor volume,"[3]; 35 days, vs control",50%
